Like-named read-outs stand apart in the source and are kept apart here.
Experiments:
[1] = target: T1, full length NS3 protein noncovalently complexed with the full-length NS4A cofactor protein (NS3/NS4A complex) (Hepatitis C virus genotype 1b, UniProt P26663); assay: Full-length NS3-NS4A heterodimer protein assay (Assay A); assay type: biochemical, hepatitis C virus (HCV)
T1 construct: full length NS3 protein spanning residues 1027–1657 of the HCV polyprotein
Method: Full-Length NS3-NS4A Heterodimer Protein Assay (Assay A)
(Gallinari, P., Paolini, C., Brennan, D., Nardi, C., Steinkühler, C. and De Francesco, R. Modulation of hepatitis C virus NS3 protease and helicase activities through the interaction with NS4A. Biochemistry 38, 5620–5632, 1999)
In this assay the full length NS3 protein spanning residues 1027–1657 of the HCV polyprotein, noncovalently complexed with the full-length NS4A cofactor protein (residues 1658–1711) was used. Assays were performed in 60 μl of a buffer containing 50 mM Hepes pH 7.5, 0.15 M NaCl, 0.1% (v/v) Triton X-100, 15% (v/v) glycerol, 10 mM DTT, 2 nM NS3/NS4A complex. To this assay mix 10 μM (final concentration) of a peptide substrate corresponding to the NS5AB cleavage site and having the sequence of the NS5A-NS5B peptide, were added. Incubation times at 23° C. were adjusted to obtain <10% conversion. Reactions were stopped by the addition of 40 μl of 1% TFA. Cleavage was determined by HPLC using a Merck-Hitachi chromatograph equipped with an autosampler. 80 μl samples were injected on a Lichrospher C18 reversed phase cartridge column (4×74 mm, 5 μm, Merck) and fragments were separated using a 10–40% acetonitrile gradient at 5%/min using a flow rate of 2.5 ml/min. Peak detection was done by monitoring both the absorbance at 220 nm and tryptophan fluorescence (λex=280 nm, λem=350 nm). Cleavage products were quantitated by integration of chromatograms with respect to appropriate standards. Kinetic parameters were calculated from nonlinear least-squares fit of initial rates as a function of substrate concentration with the help of a Kaleidagraph software, assuming Michaelis-Menten kinetics.
Ki values of peptide inhibitors were calculated from substrate titration experiments performed in the presence of increasing amounts of inhibitor. Experimental data sets were simultaneously fitted to eg.1 using a multicurve fit macro with the help of a Sigmaplot software: V=(VmaxS)/(Km([…])+S); (eq.1) Alternatively, Ki values were derived from IC50 values, calculated using a four-parameter logistic function, according to eq.2: IC50=(1+S/Km)Ki (eq.2)

[2] = target: T2, NS3 protease domain complexed to a modified form of the NS4A peptide (Pep4AK) (Hepatitis C virus genotype 1b, UniProt P26663); assay: HCV NS3 protease domain/NS4A cofactor peptide assay (Assay B); assay type: biochemical
T2 construct: NS3 protease domain (residues 1027–1206 of the HCV polyprotein)
T2 sequence (P26663 1027-1206, other chains not shown): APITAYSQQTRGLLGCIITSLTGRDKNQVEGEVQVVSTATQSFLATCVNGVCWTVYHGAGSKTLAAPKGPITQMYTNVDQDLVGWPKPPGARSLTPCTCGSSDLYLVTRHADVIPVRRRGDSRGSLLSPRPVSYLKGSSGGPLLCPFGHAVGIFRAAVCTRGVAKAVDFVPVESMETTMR

[3] = NS3 protease domain/NS4A cofactor peptide assay, read-out: Assay B (IC50 class)
[4] = Table 1, NS3 protease domain/Pep4AK, 4AB peptide substrate, read-out: Assay B
[5] = Table 5, full-length NS3/NS4A, read-out: AssayA

T1 sequence (P26663 1027-1657): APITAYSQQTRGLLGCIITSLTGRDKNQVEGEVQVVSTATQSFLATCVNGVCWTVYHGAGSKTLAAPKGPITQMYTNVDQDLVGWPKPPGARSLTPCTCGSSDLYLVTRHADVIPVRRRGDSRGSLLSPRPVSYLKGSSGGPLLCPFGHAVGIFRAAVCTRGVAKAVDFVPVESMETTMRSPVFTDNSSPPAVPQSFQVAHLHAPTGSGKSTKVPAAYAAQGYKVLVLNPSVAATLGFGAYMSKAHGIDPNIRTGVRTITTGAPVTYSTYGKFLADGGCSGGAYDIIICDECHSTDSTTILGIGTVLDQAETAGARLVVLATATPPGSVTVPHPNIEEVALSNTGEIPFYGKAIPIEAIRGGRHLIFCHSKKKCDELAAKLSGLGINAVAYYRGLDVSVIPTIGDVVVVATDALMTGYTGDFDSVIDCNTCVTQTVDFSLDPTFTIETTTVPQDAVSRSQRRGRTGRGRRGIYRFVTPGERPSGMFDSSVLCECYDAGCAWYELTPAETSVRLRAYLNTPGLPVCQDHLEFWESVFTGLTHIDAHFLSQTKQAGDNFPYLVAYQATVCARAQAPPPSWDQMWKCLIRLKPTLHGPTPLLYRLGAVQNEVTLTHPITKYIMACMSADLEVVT
T1 sequence (P26663 1658-1711): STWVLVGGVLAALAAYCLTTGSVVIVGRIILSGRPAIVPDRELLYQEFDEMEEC

Row | SMILES | IC50 [1, 5] [µM] | further results
1 | CC(C)C[C@H](NC(=O)C1(Cc2ccsc2C(=O)O)Cc2ccccc2N1)C(=O)N[C@@H](CC(F)F)C(=O)NCCc1ccc(C(=O)O)cc1Cl (single isomer, unassigned) [Compound 705] | – | IC50 [1]: < 100 µM; IC50 [2, 3]: < 10 µM
2 | CC(C)C[C@H](NC(=O)C1(Cc2ccsc2C(=O)O)Cc2ccccc2N1)C(=O)N[C@@H](CC(F)F)C(=O)NCCc1cccc(/C=C/C(=O)O)c1 (single isomer, unassigned) [Compound 706] | – | IC50 [1]: < 100 µM; IC50 [2, 3]: < 10 µM
3 | CC(C)C[C@H](NC(=O)C1(Cc2ccsc2C(=O)O)Cc2ccccc2N1)C(=O)N[C@@H](CC(F)F)C(=O)NCCc1c(F)cc(C(=O)O)cc1F (single isomer, unassigned) [Compound 708b] | – | IC50 [1]: < 100 µM; IC50 [2, 3]: < 10 µM
4 | CC(C)C[C@H](NC(=O)C1(Cc2ccc(C(=O)O)s2)CCc2ccccc2N1)C(=O)N[C@@H](CC(F)F)C(=O)NCCc1ccc(C(=O)O)cc1Cl (single isomer, unassigned) [Compound 711b] | – | IC50 [1]: < 100 µM; IC50 [2, 3]: < 10 µM
5 | CC(C)C[C@H](NC(=O)C1(Cc2cccc(C(=O)O)c2)CCc2ccccc2N1)C(=O)N[C@@H](CC(F)F)C(=O)NCCc1ccc(C(=O)O)cc1Cl (single isomer, unassigned) [Compound 712b] | – | IC50 [1]: < 100 µM; IC50 [2, 3]: < 10 µM
6 | CC(C)CC(NC(=O)C(CCC(=O)O)NC(=O)OC(C)(C)C)C(=O)NC(CS)C(=O)NCCc1ccccc1Cl (stereo not drawn) [Compound 114] | – | IC50 [1]: < 100 µM; IC50 [2, 4]: < 10 µM
7 | CC(C)CC(NC(=O)C(CCC(=O)O)NC(=O)OC(C)(C)C)C(=O)NC(CC(F)F)C(=O)NCCc1ccccc1Cl (stereo not drawn) [Compound 115] | – | IC50 [1]: < 100 µM; IC50 [2, 4]: < 10 µM
8 | CC(C)COC(=O)NC(CCC(=O)O)C(=O)NC(CC(C)C)C(=O)NC(CS)C(=O)NCCc1cccc(C(=O)O)c1 (stereo not drawn) [Compound 133] | – | IC50 [1]: < 100 µM; IC50 [2, 4]: < 10 µM
9 | CC(C)COC(=O)NC(CCC(=O)O)C(=O)NC(CC(C)C)C(=O)NC(CS)C(=O)NCCc1ccc(C(=O)O)cc1 (stereo not drawn) [Compound 151] | – | IC50 [1]: < 100 µM; IC50 [2, 4]: < 10 µM
10 | CC[C@H](C)[C@H](NC(=O)OCC(C)C)C(=O)N1C[C@H](c2ccccc2)C[C@H]1C(=O)N[C@@H](CC(F)F)C(=O)NCCc1c(F)cc(C(=O)O)cc1F [Compound 534] | < 10 | –
11 | CC[C@@H](C)[C@H](NC(=O)OCC(C)C)C(=O)N1C[C@H](C2CCCCC2)C[C@H]1C(=O)N[C@@H](CC(F)F)C(=O)NCCc1c(F)cc(C(=O)O)cc1F [Compound 535] | < 1 | –
12 | CC(C)COC(=O)N[C@H](C(=O)N1C[C@H](C2CCCCC2)C[C@H]1C(=O)N[C@@H](CC(F)F)C(=O)NCCc1c(F)cc(C(=O)O)cc1F)C(C)(C)C [Compound 536] | < 10 | –
13 | CC(C)COC(=O)N[C@H](C(=O)N1C[C@H](c2ccccc2)C[C@H]1C(=O)N[C@@H](CC(F)F)C(=O)NCCc1c(F)cc(C(=O)O)cc1F)C(C)(C)C [Compound 537] | < 10 | –
14 | CC(C)COC(=O)N[C@H](C(=O)N1C[C@H](C2CCCCC2)C[C@H]1C(=O)N[C@@H](CC(F)F)C(=O)NCCc1c(F)cc(C(=O)O)cc1F)C1CCCC1 [Compound 538] | < 1 | –
15 | CC(C)[C@H](NC(=O)OCC1CC1)C(=O)N1C[C@H](C2CCCCC2)C[C@H]1C(=O)N[C@@H](CC(F)F)C(=O)NCCc1c(F)cc(C(=O)O)cc1F [Compound 540] | < 1 | –
16 | CC(C)[C@H](NC(=O)OC1CCCC1)C(=O)N1C[C@H](C2CCCCC2)C[C@H]1C(=O)N[C@@H](CC(F)F)C(=O)NCCc1c(F)cc(C(=O)O)cc1F [Compound 541] | < 1 | –
17 | CC(C)[C@H](NC(=O)OCC1CCCC1)C(=O)N1C[C@H](C2CCCCC2)C[C@H]1C(=O)N[C@@H](CC(F)F)C(=O)NCCc1c(F)cc(C(=O)O)cc1F [Compound 542] | < 10 | –
18 | CC(C)COC(=O)N[C@H](C(=O)N1C[C@H](SCc2ccccc2)C[C@H]1C(=O)N[C@@H](CC(F)F)C(=O)NCCc1c(F)cc(C(=O)O)cc1F)C(C)C [Compound 544] | < 10 | –
19 | COc1cccc(S[C@@H]2C[C@@H](C(=O)N[C@@H](CC(F)F)C(=O)NCCc3c(F)cc(C(=O)O)cc3F)N(C(=O)[C@@H](NC(=O)OCC(C)C)C(C)C)C2)c1 [Compound 545] | < 1 | –
20 | COc1cccc(S(=O)(=O)[C@@H]2C[C@@H](C(=O)N[C@@H](CC(F)F)C(=O)NCCc3c(F)cc(C(=O)O)cc3F)N(C(=O)[C@@H](NC(=O)OCC(C)C)C(C)C)C2)c1 [Compound 547] | < 1 | –

Row | SMILES | IC50 [1, 5] [µM] | further results
21 | CCCS[C@@H]1C[C@@H](C(=O)N[C@@H](CC(F)F)C(=O)NCCc2c(F)cc(C(=O)O)cc2F)N(C(=O)[C@@H](NC(=O)OCC(C)C)C(C)C)C1 [Compound 548] | < 1 | –
22 | CCC[S+]([O-])[C@@H]1C[C@@H](C(=O)N[C@@H](CC(F)F)C(=O)NCCc2c(F)cc(C(=O)O)cc2F)N(C(=O)[C@@H](NC(=O)OCC(C)C)C(C)C)C1 (stereo partly drawn) [Compound 549] | < 10 | –
23 | CCCS(=O)(=O)[C@@H]1C[C@@H](C(=O)N[C@@H](CC(F)F)C(=O)NCCc2c(F)cc(C(=O)O)cc2F)N(C(=O)[C@@H](NC(=O)OCC(C)C)C(C)C)C1 [Compound 550] | < 1 | –
24 | CC(C)COC(=O)N[C@H](C(=O)N1C[C@H](S(=O)(=O)C2CCCCC2)C[C@H]1C(=O)N[C@@H](CC(F)F)C(=O)NCCc1c(F)cc(C(=O)O)cc1F)C(C)C [Compound 553] | < 1 | –
25 | CC(C)COC(=O)N[C@H](C(=O)N1C[C@H](c2ccccc2)C[C@H]1C(=O)N[C@@H](CC(F)F)C(=O)NCCc1c(F)cc(-c2nn[nH]n2)cc1F)C(C)C [Compound 554] | < 1 | –
26 | CC(C)COC(=O)N[C@H](C(=O)N1C[C@H](S(=O)(=O)C2CCCCC2)C[C@H]1C(=O)N[C@@H](CC(F)F)C(=O)NCCc1c(F)cc(-c2nn[nH]n2)cc1F)C(C)C [Compound 556] | < 1 | –
27 | CC(C)COC(=O)N[C@H](C(=O)N1C[C@H](C2CCCCC2)C[C@H]1C(=O)N[C@@H](CC(F)F)C(=O)NCCc1c(F)cc(C(=O)NS(C)(=O)=O)cc1F)C(C)C [Compound 557] | < 1 | –
28 | CC(C)COC(=O)N[C@H](C(=O)N1C[C@H](c2ccccc2)C[C@H]1C(=O)N[C@@H](CC(F)F)C(=O)NCCc1cccc(/C=C/C(=O)O)c1)C(C)C [Compound 558] | < 10 | –
29 | CCOC(=O)/C=C/c1cccc(CCNC(=O)[C@H](CC(F)F)NC(=O)[C@@H]2C[C@@H](c3ccccc3)CN2C(=O)[C@@H](NC(=O)OCC(C)C)C(C)C)c1 [Compound 559] | < 100 | –
30 | CC(C)COC(=O)N[C@H](C(=O)N1C[C@H](c2ccccc2)C[C@H]1C(=O)N[C@@H](CC(F)F)C(=O)NCCc1cccc(/C=C/C(=O)O)c1F)C(C)C [Compound 560] | < 1 | –
31 | CC(C)COC(=O)N[C@H](C(=O)N1C[C@H](c2ccccc2)C[C@H]1C(=O)N[C@@H](CC(F)F)C(=O)NCCc1cc(/C=C/C(=O)O)ccc1F)C(C)C [Compound 561] | < 1 | –
32 | CC(C)COC(=O)N[C@H](C(=O)N1C[C@H](c2ccccc2)C[C@H]1C(=O)N[C@@H](CC(F)F)C(=O)NCCc1cccc(OCC(=O)O)c1)C(C)C [Compound 562] | < 100 | –
33 | CC(C)COC(=O)N[C@H](C(=O)N1C[C@H](C2CCCCC2)C[C@H]1C(=O)N[C@@H](CC(F)F)C(=O)NCCc1c(F)ccc(OCC(=O)O)c1F)C(C)C [Compound 565] | < 1 | –
34 | CC(C)COC(=O)N[C@H](C(=O)N1C[C@H](c2ccccc2)C[C@H]1C(=O)N[C@@H](CC(F)F)C(=O)NCCc1[nH]c2ccccc2c1CCC(=O)O)C(C)C [Compound 572] | < 100 | –
35 | CC(C)COC(=O)N[C@H](C(=O)N1C[C@H](c2ccccc2)C[C@H]1C(=O)N[C@@H](CC(F)F)C(=O)NCCc1cn(CCC(=O)O)c2ccccc12)C(C)C [Compound 573] | < 100 | –
36 | CC(C)COC(=O)N[C@H](C(=O)N1C[C@H](c2ccccc2)C[C@H]1C(=O)N[C@@H](CC(F)F)C(=O)NCCc1c[nH]c2ccccc12)C(C)C [Compound 574] | < 100 | –
37 | CC(C)COC(=O)N[C@@H](CCC(=O)O)C(=O)N1C[C@H](c2ccccc2)C[C@H]1C(=O)N[C@@H](CC(F)F)C(=O)NCCc1c[nH]c2ccccc12 [Compound 575] | < 100 | –
38 | COc1ccc2c(O[C@@H]3C[C@@H](C(=O)N[C@@H](CC(F)F)C(=O)NCCc4c(F)cc(C(=O)O)cc4F)N(C(=O)[C@@H](NC(=O)OC(C)(C)C)C(C)(C)C)C3)cc(-c3ccccc3)nc2c1 [Compound 576] | < 1 | –
39 | CC(C)[C@H](O)C(=O)N1C[C@H](OCCCc2ccccc2)CC1C(=O)N[C@@H](CC(F)F)C(=O)NCCc1c(F)cc(C(=O)O)cc1F (stereo partly drawn) [Compound 616] | – | IC50 ([1]; Table 6, full-length NS3/NS4A, read-out: Assay A): < 100 µM

— US7119073B2, “Peptides and their use as inhibitors of hepatitis C virus ns3 protease” (Istituto Di Ricerche Di Biologia Molecolare P. Angeletti SpA, priority 2001, dated 2006)
